Data as given in PubChem BioAssay AID2060490 (Molecular Pharmacology Branch, DTP, NCI, 2025).
Blank lines part the entries; values can stand above or below the compound they belong to.

System: 885512-296-R-J2-PDC complex spheroid viability
Assay: Anticancer human tumor 885512-296-R-J2-PDC patient-derived breast carcinoma cell line growth inhibition [GQUAD]
Conditions: for IC50: curve of first compound; for viability, T/C: stronger effect = lower value
From the text: DNA G-quadruplex Stabilizer Agents in Combinations in Complex Spheroids
A high-throughput screen of multi-cell type tumor spheroids was designed to identify active combinations of DNA G-quadruplex stabilizer agents and targeted small molecules. Complex spheroids include a stromal component modeled by human endothelial cells (HUVEC) and fibroblasts modeled by human mesenchymal stem cells (MSCs). The concentration ranges selected for each drug and investigational agent were based upon clinically achievable concentrations if the clinical Cmax of the agent was known.
Compounds. The drugs and investigational agents: pidnarulex (CX-5461; NSC782164), APTO-253 (NSC789042), BRACO-19 (NSC847499), peposertib (NSC802822), ceralasertib (NSC780249), elimusertib (NSC800525), camonsertib (NSC841442), AZD-1390 (NSC803789), olaparib (NSC753686), talazoparib (NSC767125), ART-558 (NSC835418), sotorasib (NSC818433), MRTX-1133 (NSC836407), SN-38 (NSC673596), topotecan (NSC609699), etoposide (NSC141540), doxorubicin (NSC123127), gemcitabine (NSC613327), 5-fluorouracil (NSC19893), paclitaxel (NSC125973), vemurafenib (NSC761431), panobinostat (NSC761190), R-306465 (JNJ-16241199; NSC773264), adavosertib (NSC754352), TP-3654 (NSC805149), carboplatin (NSC241240), KSQ-4279 (NSC840948), and staurosporine (NSC755774) were obtained from the National Cancer Institute (NCI) Developmental Therapeutics Program Chemical Repository (34). The FDA-approved anticancer drug set is available from the NCI Developmental Therapeutics Program. […] The stock solutions were prepared in dimethyl sulfoxide (DMSO, Sigma-Aldrich, St. Louis, MO, cat. D2650) at 800-fold the tested concentration and stored at -70 degrees C prior to their use. All drugs and investigational agents were tested over a range starting from a high concentration at or near the clinical Cmax and decreasing in half-log increments. If the clinical Cmax for an agent had not been determined, the highest concentration tested was 10 microM.
2.3 Cell Culture. All cells were maintained in an incubator at 37 degrees C and 5% CO2 with 95% humidity. The PDC lines were cultured according to standard operating procedures established by the NCI PDMR. All PDCs were thawed and cultured in Matrigel-coated flasks prepared with a working solution of 1X Ham's F-12 nutrient mix, without supplementation (Invitrogen, cat. 11765054), 100 U/mL penicillin-streptomycin (Invitrogen, cat. 15140122), and 2.5% Matrigel (Corning Inc., cat. 354248) for the first three passages. The 857933-349-R-J2-PDC line was cultured in 6C/Colon 1B media, which includes advanced DMEM/F-12 (Thermo Fisher Scientific, cat. 12634028), 10 mM HEPES (Thermo Fisher Scientific, cat. 15630080), 1X GlutaMAX supplement (Thermo Fisher Scientific, cat. 35050061), 0.1 mg/mL primocin (InvivoGen, cat. ant-pm-2), 10% defined fetal bovine serum, heat inactivated (HyClone Laboratories Inc., cat. SH30070.03HI), 50% L-WRN conditioned media (ATCC, cat. CRL-3276), 1.25 mM N-Acetyl-L-cysteine (Sigma-Aldrich, cat. A9165), 10 mM nicotinamide (Sigma-Aldrich, cat. N0636), 1X B-27 supplement (Thermo Fisher Scientific, cat. 17504044), 1X N-2 supplement (Thermo Fisher Scientific, cat. 17502048), 10 microM Y-27632 dihydrochloride (Tocris Bioscience, cat. 1254), and 50 ng/mL human EGF recombinant protein (Thermo Fisher Scientific, cat. PHG0311). The 485176-168-R4-J1-PDC line was cultured in Panc media, which includes all 6C/Colon 1B media components plus 100 ng/mL human FGF-10 (Thermo Fisher Scientific, cat. 100-26), 500 nM SB-431542 (Selleckchem, cat. S1067), and gastrin (Tocris, cat. 3006).
[…]

[1] = second compound 0.0316 µM, first compound 0.0316 µM
[2] = second compound 0.0316 µM, first compound 0.1 µM
[3] = second compound 0.0316 µM, first compound 0.316 µM
[4] = second compound 0.0316 µM, first compound 1 µM
[5] = second compound 0.0316 µM, first compound 3.16 µM
[6] = second compound 0.0316 µM, first compound 10 µM
[7] = second compound 0.1 µM, first compound 0.0316 µM
[8] = second compound 0.1 µM, first compound 0.1 µM
[9] = second compound 0.1 µM, first compound 0.316 µM
[10] = second compound 0.1 µM, first compound 1 µM
[11] = second compound 0.1 µM, first compound 3.16 µM
[12] = second compound 0.1 µM, first compound 10 µM
[13] = second compound 0.316 µM, first compound 0.0316 µM
[14] = second compound 0.316 µM, first compound 0.1 µM
[15] = second compound 0.316 µM, first compound 0.316 µM
[16] = second compound 0.316 µM, first compound 1 µM
[17] = second compound 0.316 µM, first compound 3.16 µM
[18] = second compound 0.316 µM, first compound 10 µM
[19] = second compound 1 µM, first compound 0.0316 µM
[20] = second compound 1 µM, first compound 0.1 µM
[21] = second compound 1 µM, first compound 0.316 µM
[22] = second compound 1 µM, first compound 1 µM
[23] = second compound 1 µM, first compound 3.16 µM
[24] = second compound 1 µM, first compound 10 µM
[25] = second compound 3.16 µM, first compound 0.0316 µM
[26] = second compound 3.16 µM, first compound 0.1 µM
[27] = second compound 3.16 µM, first compound 0.316 µM
[28] = second compound 3.16 µM, first compound 1 µM
[29] = second compound 3.16 µM, first compound 3.16 µM
[30] = second compound 3.16 µM, first compound 10 µM
[31] = second compound 10 µM, first compound 0.0316 µM
[32] = second compound 10 µM, first compound 0.1 µM
[33] = second compound 10 µM, first compound 0.316 µM
[34] = second compound 10 µM, first compound 1 µM
[35] = second compound 10 µM, first compound 3.16 µM
[36] = second compound 10 µM, first compound 10 µM
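Note: spheroids exposed to the compounds for one week.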
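Throughout, for viability, T/C: percent of tumor spheroid viability relative to DMSO vehicle control wells.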

SMILES: C=CCn1c(=O)c2cnc(Nc3ccc(N4CCN(C)CC4)cc3)nc2n1-c1cccc(C(C)(C)O)n1 + CN(C)c1ccc(Nc2c3ccc(NC(=O)CCN4CCCC4)cc3nc3cc(NC(=O)CCN4CCCC4)ccc23)cc1
- IC50 (second compound 0.0316 µM): 415 nM
- IC50 (second compound 0.1 µM): 311 nM
- IC50 (second compound 0.316 µM): 341 nM
- IC50 (second compound 1 µM): 462 nM
- IC50 (second compound 3.16 µM): 358 nM
- IC50 (second compound 10 µM): < 31.6 nM
- viability, T/C [1]: 104%
- viability, T/C [2]: 102%
- viability, T/C [3]: 62.7%
- viability, T/C [4]: 8.77%
- viability, T/C [5]: 3.39%
- viability, T/C [6]: 2.43%
- viability, T/C [7]: 120%
- viability, T/C [8]: 98.9%
- viability, T/C [9]: 51.7%
- viability, T/C [10]: 7.71%
- viability, T/C [11]: 3.11%
- viability, T/C [12]: 2.74%
- viability, T/C [13]: 122%
- viability, T/C [14]: 93.5%
- viability, T/C [15]: 58%
- viability, T/C [16]: 9.28%
- viability, T/C [17]: 2.73%
- viability, T/C [18]: 2.28%
- viability, T/C [19]: 102%
- viability, T/C [20]: 103%
- viability, T/C [21]: 70.5%
- viability, T/C [22]: 8.23%
- viability, T/C [23]: 2.54%
- viability, T/C [24]: 2.76%
- viability, T/C [25]: 105%
- viability, T/C [26]: 98.3%
- viability, T/C [27]: 55.2%
- viability, T/C [28]: 8.19%
- viability, T/C [29]: 2.51%
- viability, T/C [30]: 2.74%
- viability, T/C [31]: 22%
- viability, T/C [32]: 22.4%
- viability, T/C [33]: 12.2%
- viability, T/C [34]: 5.57%
- viability, T/C [35]: 1.22%
- viability, T/C [36]: 1.46%

- IC50 (second compound 0.0316 µM): > 10000 nM
- IC50 (second compound 0.1 µM): > 10000 nM
- IC50 (second compound 0.316 µM): < 31.6 nM
- IC50 (second compound 1 µM): < 31.6 nM
- IC50 (second compound 3.16 µM): < 31.6 nM
- IC50 (second compound 10 µM): < 31.6 nM
SMILES: O=c1[nH]cc(F)c(=O)[nH]1 + Cc1cnc(CNC(=O)c2c(=O)c3ccc(N4CCCN(C)CC4)nc3n3c2sc2ccccc23)cn1
- viability, T/C [1]: 90.9%
- viability, T/C [2]: 75.9%
- viability, T/C [3]: 87.1%
- viability, T/C [4]: 69.5%
- viability, T/C [5]: 59.4%
- viability, T/C [6]: 52.1%
- viability, T/C [7]: 68.3%
- viability, T/C [8]: 70.2%
- viability, T/C [9]: 54.4%
- viability, T/C [10]: 66.3%
- viability, T/C [11]: 51.1%
- viability, T/C [12]: 56.8%
- viability, T/C [13]: 30%
- viability, T/C [14]: 27.2%
- viability, T/C [15]: 23.6%
- viability, T/C [16]: 19.8%
- viability, T/C [17]: 38%
- viability, T/C [18]: 36.1%
- viability, T/C [19]: 29.9%
- viability, T/C [20]: 28.4%
- viability, T/C [21]: 26.4%
- viability, T/C [22]: 28%
- viability, T/C [23]: 23.1%
- viability, T/C [24]: 27.6%
- viability, T/C [25]: 23.5%
- viability, T/C [26]: 27.8%
- viability, T/C [27]: 22.4%
- viability, T/C [28]: 20.4%
- viability, T/C [29]: 29.4%
- viability, T/C [30]: 24.1%
- viability, T/C [31]: 0.1%
- viability, T/C [32]: 0.16%
- viability, T/C [33]: 0.21%
- viability, T/C [34]: 0.13%
- viability, T/C [35]: 0.19%
- viability, T/C [36]: 0.16%
